From ChEMBL document CHEMBL5291721, “A preclinical secondary pharmacology resource illuminates target-adverse drug reaction associations of marketed drugs” (Nat Commun, 2023)

Legend:
D(1A) dopamine receptor [1] = molecular target: T1, D(1A) dopamine receptor (Homo sapiens, UniProt P21728)
[2] = molecular target: T2, Muscarinic acetylcholine receptor M1 (Homo sapiens, UniProt P11229); type: functional, cell-based
T2 sequence (P11229 whole entry): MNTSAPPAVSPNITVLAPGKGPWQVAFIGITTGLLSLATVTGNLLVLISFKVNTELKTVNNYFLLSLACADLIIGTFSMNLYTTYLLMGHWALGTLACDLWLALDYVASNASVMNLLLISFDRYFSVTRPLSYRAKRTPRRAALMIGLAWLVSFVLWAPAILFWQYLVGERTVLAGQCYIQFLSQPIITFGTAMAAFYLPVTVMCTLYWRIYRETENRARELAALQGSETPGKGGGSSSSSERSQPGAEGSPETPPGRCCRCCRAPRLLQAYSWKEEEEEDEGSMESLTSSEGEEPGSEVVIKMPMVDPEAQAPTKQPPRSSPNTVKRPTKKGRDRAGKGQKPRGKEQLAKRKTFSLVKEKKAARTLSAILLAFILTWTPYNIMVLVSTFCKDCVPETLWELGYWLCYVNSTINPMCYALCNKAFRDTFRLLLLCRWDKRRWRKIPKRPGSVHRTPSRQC

Progesterone receptor [3] = molecular target: T3, Progesterone receptor (Homo sapiens, UniProt P06401)
T3 sequence (P06401 whole entry): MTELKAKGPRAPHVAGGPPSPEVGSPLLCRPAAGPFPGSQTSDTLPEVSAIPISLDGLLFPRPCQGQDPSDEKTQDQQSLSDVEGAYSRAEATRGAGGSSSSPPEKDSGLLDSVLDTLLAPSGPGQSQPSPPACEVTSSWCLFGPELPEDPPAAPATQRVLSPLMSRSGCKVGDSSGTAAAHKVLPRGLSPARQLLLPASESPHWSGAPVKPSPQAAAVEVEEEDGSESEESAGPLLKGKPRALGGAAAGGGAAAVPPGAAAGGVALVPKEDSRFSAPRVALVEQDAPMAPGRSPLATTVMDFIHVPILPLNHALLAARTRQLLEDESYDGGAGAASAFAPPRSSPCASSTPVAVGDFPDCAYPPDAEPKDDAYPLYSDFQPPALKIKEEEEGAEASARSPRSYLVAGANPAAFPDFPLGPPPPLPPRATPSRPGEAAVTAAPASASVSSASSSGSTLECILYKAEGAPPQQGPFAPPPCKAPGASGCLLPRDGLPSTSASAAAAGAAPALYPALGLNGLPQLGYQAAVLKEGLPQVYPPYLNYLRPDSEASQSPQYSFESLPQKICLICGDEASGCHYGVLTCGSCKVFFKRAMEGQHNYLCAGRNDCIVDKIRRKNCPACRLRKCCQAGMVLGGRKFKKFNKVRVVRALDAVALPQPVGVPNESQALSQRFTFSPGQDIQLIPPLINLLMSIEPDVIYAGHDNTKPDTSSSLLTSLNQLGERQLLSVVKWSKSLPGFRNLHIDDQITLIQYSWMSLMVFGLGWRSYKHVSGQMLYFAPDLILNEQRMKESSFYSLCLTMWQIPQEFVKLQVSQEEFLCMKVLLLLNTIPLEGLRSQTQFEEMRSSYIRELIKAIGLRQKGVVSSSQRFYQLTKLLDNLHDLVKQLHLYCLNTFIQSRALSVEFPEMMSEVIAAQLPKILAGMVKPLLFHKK

[4] = molecular target: T4, Alpha-2B adrenergic receptor (Homo sapiens, UniProt P18089)
T4 sequence (P18089 whole entry): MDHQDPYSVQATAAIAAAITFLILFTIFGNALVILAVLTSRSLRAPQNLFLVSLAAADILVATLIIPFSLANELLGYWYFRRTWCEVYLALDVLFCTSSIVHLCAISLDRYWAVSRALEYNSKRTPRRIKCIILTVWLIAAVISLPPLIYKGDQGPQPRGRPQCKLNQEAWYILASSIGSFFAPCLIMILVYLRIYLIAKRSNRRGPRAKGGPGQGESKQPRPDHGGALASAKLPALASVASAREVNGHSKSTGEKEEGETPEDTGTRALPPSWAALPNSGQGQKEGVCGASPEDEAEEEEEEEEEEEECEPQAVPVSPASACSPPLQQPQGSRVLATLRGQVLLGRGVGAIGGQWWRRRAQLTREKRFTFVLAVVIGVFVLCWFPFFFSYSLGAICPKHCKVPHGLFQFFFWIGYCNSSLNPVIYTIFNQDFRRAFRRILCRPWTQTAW

Melanocortin receptor 3 = Melanocortin receptor 3 (Homo sapiens, UniProt P41968)
[5] = molecular target: Sodium-dependent noradrenaline transporter (Homo sapiens, UniProt P23975)
Mu-type opioid receptor = Mu-type opioid receptor (Homo sapiens, UniProt P35372)
Motilin receptor = Motilin receptor (Homo sapiens, UniProt O43193)
[6] = molecular target: T5, Neuropeptide Y receptor type 1 (Homo sapiens, UniProt P25929)
T5 sequence (P25929 whole entry): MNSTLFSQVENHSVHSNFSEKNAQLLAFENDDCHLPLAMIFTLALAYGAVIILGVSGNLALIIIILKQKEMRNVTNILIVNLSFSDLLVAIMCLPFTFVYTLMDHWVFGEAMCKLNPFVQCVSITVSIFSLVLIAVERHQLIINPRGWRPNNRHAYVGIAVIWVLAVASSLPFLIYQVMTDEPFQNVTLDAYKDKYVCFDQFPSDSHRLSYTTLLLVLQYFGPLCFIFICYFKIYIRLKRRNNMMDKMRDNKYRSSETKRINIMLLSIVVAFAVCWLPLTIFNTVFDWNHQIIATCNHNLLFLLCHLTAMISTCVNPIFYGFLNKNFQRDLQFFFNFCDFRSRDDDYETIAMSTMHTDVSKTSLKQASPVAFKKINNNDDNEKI

[7] = molecular target: Voltage-dependent L-type calcium channel subunit alpha-1C (Rattus norvegicus, UniProt P22002); type: functional
Progesterone receptor [8] = molecular target: T3, Progesterone receptor; type: functional
D(1A) dopamine receptor [9] = molecular target: T1, D(1A) dopamine receptor; type: functional, cell-based
Also: assay procedure not described here.

T1 sequence (P21728 whole entry): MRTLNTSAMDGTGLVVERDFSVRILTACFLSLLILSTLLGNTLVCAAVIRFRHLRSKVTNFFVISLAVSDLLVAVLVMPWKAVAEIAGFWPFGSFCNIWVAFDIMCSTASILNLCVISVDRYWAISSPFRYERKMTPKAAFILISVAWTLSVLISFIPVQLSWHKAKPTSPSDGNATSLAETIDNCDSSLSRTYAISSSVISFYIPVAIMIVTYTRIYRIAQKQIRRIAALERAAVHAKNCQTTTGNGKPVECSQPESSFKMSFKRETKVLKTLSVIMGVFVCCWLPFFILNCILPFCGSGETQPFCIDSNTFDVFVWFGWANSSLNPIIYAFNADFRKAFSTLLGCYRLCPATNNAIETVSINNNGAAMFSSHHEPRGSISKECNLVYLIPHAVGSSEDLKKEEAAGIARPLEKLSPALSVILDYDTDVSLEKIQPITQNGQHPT
Sequence of Sodium-dependent noradrenaline transporter (P23975 whole entry): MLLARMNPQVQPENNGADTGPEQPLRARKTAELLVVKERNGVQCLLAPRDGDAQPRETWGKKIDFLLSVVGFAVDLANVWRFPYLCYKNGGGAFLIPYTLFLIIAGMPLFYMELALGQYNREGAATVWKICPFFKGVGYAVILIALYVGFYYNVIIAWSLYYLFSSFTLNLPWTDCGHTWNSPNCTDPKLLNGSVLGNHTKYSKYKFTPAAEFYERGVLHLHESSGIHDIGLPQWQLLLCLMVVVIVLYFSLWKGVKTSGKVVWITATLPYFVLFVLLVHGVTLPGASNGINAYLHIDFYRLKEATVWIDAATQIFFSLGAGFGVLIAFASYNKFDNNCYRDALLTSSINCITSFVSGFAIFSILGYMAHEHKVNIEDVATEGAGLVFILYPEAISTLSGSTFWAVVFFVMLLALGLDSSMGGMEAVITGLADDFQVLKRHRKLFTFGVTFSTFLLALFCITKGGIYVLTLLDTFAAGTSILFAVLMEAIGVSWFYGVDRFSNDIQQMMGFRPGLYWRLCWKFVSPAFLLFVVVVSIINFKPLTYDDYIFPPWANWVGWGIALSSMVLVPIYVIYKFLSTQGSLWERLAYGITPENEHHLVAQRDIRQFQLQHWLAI
Sequence of Melanocortin receptor 3 (P41968 whole entry): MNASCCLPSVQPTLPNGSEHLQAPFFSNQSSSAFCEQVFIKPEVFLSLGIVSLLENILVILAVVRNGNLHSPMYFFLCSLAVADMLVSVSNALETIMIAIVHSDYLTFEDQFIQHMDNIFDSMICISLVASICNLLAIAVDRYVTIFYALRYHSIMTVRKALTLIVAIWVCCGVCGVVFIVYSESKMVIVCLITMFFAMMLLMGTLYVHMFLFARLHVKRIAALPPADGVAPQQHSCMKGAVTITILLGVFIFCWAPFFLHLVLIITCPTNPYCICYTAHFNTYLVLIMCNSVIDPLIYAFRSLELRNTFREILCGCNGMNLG
Sequence of Motilin receptor (O43193 whole entry): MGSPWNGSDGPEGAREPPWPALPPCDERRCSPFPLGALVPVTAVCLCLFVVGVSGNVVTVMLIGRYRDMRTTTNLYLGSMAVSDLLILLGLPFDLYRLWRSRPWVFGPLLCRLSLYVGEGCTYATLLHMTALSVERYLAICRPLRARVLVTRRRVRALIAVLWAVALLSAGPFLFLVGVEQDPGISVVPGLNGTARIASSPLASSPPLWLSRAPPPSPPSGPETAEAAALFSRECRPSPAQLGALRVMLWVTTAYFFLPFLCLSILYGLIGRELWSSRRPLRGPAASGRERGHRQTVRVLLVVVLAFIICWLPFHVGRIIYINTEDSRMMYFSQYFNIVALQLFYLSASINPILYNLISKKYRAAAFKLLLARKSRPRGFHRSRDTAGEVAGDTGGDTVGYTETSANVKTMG
Sequence of Voltage-dependent L-type calcium channel subunit alpha-1C (P22002 whole entry): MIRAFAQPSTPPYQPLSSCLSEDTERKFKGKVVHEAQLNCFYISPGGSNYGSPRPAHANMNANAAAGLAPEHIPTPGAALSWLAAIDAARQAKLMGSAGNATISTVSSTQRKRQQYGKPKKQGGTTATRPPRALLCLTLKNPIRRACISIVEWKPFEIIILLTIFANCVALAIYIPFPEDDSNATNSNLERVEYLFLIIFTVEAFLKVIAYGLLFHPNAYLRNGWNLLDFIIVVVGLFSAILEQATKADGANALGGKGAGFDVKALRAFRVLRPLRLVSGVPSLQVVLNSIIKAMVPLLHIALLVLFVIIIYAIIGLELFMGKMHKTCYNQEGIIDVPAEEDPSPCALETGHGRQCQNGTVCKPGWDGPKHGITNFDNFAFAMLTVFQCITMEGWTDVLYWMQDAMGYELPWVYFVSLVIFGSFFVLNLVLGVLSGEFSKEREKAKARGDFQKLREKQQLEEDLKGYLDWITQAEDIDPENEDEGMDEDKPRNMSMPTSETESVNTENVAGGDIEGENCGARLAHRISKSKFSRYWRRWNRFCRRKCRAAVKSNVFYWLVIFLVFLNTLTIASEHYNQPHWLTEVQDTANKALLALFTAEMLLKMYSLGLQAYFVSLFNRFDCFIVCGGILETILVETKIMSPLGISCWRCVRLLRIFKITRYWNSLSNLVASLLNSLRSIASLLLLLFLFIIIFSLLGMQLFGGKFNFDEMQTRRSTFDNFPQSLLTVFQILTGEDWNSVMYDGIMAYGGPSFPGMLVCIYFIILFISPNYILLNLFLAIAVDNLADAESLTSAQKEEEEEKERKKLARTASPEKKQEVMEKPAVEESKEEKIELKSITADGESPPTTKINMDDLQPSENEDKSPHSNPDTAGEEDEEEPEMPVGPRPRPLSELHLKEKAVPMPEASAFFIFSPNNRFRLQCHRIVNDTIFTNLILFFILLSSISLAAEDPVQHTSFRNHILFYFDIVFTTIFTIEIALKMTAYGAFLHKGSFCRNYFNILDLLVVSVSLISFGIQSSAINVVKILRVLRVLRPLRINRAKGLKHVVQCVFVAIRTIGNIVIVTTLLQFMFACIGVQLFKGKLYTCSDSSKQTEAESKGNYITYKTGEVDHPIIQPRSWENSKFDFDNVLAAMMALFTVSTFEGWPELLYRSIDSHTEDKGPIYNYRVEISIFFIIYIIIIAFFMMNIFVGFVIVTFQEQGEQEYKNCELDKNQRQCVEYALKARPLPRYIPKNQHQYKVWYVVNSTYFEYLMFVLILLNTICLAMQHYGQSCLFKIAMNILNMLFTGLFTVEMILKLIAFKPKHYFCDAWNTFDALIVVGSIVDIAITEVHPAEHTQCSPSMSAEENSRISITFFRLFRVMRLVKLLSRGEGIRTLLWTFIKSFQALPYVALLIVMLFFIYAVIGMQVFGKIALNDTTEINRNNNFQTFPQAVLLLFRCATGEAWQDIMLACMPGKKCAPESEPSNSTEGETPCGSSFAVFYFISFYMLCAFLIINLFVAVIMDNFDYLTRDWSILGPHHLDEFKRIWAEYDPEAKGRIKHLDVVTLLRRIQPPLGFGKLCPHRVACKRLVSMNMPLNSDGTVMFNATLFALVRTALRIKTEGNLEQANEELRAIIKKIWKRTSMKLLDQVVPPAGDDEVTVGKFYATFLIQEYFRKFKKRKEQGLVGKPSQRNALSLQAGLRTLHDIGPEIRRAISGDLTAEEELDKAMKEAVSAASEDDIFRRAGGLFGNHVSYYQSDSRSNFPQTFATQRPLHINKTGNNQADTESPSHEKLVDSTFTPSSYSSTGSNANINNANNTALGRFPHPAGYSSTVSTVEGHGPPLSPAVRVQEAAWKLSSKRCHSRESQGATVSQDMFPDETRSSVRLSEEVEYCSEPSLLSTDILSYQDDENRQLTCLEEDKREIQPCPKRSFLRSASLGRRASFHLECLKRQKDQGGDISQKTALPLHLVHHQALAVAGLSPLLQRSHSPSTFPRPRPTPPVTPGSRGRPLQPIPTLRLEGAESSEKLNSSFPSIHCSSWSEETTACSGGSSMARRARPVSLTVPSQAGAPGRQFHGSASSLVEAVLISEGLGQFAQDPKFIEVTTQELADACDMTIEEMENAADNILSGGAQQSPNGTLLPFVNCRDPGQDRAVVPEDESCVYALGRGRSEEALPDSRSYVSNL
Sequence of Mu-type opioid receptor (P35372 whole entry): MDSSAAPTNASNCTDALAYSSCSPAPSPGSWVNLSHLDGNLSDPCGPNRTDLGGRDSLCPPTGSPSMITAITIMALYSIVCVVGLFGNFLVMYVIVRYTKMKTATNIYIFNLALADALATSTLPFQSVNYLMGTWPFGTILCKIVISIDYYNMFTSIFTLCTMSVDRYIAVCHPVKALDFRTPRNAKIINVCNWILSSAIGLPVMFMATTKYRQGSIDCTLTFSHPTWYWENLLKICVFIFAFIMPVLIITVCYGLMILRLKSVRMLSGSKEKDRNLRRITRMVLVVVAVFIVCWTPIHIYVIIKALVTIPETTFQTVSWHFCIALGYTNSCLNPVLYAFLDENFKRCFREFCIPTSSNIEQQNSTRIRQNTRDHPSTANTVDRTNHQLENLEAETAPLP

Compound | AC50 (D(1A) dopamine receptor [1]) | AC50 [2] | AC50 (Progesterone receptor [3]) | also measured
Cc1cc2c(cc1S(N)(=O)=O)S(=O)(=O)CCC2 | > 30 µM | > 30 µM | > 30 µM | –
C[C@H](N[C@@H](CCc1ccccc1)C(=O)O)C(=O)N1Cc2ccccc2C[C@H]1C(=O)O | > 30 µM | > 30 µM | > 30 µM | –
O=C(O)[C@@H]1C[C@@H](O)CN1 | > 30 µM | > 30 µM | > 30 µM | –
CC1(C)S[C@@H]2[C@H](/N=C/N3CCCCCC3)C(=O)N2[C@H]1C(=O)O [AMDINOCILLIN] | > 30 µM | > 30 µM | > 30 µM | –
CC(=O)[C@]1(N)Cc2c(O)c3c(c(O)c2[C@@H](O[C@H]2C[C@H](O)[C@H](O)CO2)C1)C(=O)c1ccccc1C3=O [AMRUBICIN] | > 30 µM | > 3 µM | > 30 µM | –
NC(=O)[C@@H]1CC[C@@H]2CN1C(=O)N2OS(=O)(=O)O [AVIBACTAM] | > 30 µM | > 30 µM | > 30 µM | –
O=C(/C=C/c1cccc(S(=O)(=O)Nc2ccccc2)c1)NO [BELINOSTAT] | > 30 µM | – | > 30 µM | AC50 [4]: > 10 µM; AC50 (Melanocortin receptor 3): > 30 µM; AC50 [5]: > 10 µM; AC50 (Mu-type opioid receptor): > 30 µM; AC50 (Motilin receptor): > 10 µM; AC50 [6]: > 30 µM; AC50 [7]: > 10 µM
CC(C)(C)NC(=O)N[C@H](C(=O)N1C[C@H]2[C@@H]([C@H]1C(=O)NC(CC1CCC1)C(=O)C(N)=O)C2(C)C)C(C)(C)C (stereo partly specified) [BOCEPREVIR] | > 30 µM | > 30 µM | > 30 µM | –
Cc1ncc2c(c1O)COC2c1ccc(Cl)cc1 (stereo unspecified) [CICLETANINE] | > 30 µM | > 30 µM | > 30 µM | –
Cc1cn([C@H]2O[C@@H](CO)[C@H](O)[C@H]2F)c(=O)[nH]c1=O [CLEVUDINE] | > 30 µM | > 30 µM | > 30 µM | –
N#Cc1ccc(Oc2ccc3c(c2)COB3O)cc1 [CRISABOROLE] | > 30 µM | 13.7 µM | > 30 µM | –
CC(=O)[C@H]1CC[C@H]2[C@@H]3C=CC4=CC(=O)CC[C@@]4(C)[C@@H]3CC[C@]12C [DYDROGESTERONE] | > 30 µM | 5.06 µM | – | –
CC(=O)O[C@H]1Cc2ccccc2N(C(N)=O)c2ccccc21 [ESLICARBAZEPINE ACETATE] | > 30 µM | > 30 µM | > 30 µM | –
Cc1ccc(S(=O)(=O)NC(=O)NC2CCCCC2)cc1 [GLYCYCLAMIDE] | > 30 µM | > 30 µM | > 30 µM | –
COc1ccc([C@@H]2CC(=O)c3c(O)cc(O)cc3O2)cc1O [HESPERETIN] | – | – | – | AC50 [4]: > 10 µM; AC50 (Melanocortin receptor 3): > 10 µM; AC50 [5]: > 10 µM; AC50 (Mu-type opioid receptor): > 30 µM; AC50 (Progesterone receptor [8]): > 10 µM; AC50 (Motilin receptor): > 10 µM; AC50 (D(1A) dopamine receptor [9]): > 30 µM; AC50 [6]: > 10 µM; AC50 [7]: > 10 µM
CN1CCCN(C(c2ccccc2)c2ccc(Cl)cc2)CC1 (stereo unspecified) [HOMOCHLORCYCLIZINE] | 2.4 µM | 0.12 µM | > 30 µM | –

Compound | AC50 (D(1A) dopamine receptor [1]) | AC50 [2] | AC50 (Progesterone receptor [3]) | also measured
CC(=O)OCC(=O)[C@@]1(O)CC[C@H]2[C@@H]3CCC4=CC(=O)CC[C@]4(C)[C@H]3[C@@H](O)C[C@@]21C [HYDROCORTISONE ACETATE] | > 30 µM | 17.7 µM | 7.67 µM | –
CC(COc1ccccc1)NC(C)C(O)c1ccc(O)cc1 (stereo unspecified) [ISOXSUPRINE] | 9.44 µM | > 30 µM | > 30 µM | –
O=C(CCC/C=C\C[C@@H]1[C@@H](CC[C@@H](O)CCc2ccccc2)[C@H](O)C[C@@H]1O)OCCCCO[N+](=O)[O-] [LATANOPROSTENE BUNOD] | > 30 µM | > 10 µM | > 30 µM | –
Cc1oc(=O)oc1COC(=O)[C@@H]1N2C(=O)[C@@H](NC(=O)[C@H](N)c3ccccc3)[C@H]2SC1(C)C [LENAMPICILLIN] | > 30 µM | 9.21 µM | > 30 µM | –
C=C1c2cccc(O)c2C(=O)C2=C(O)[C@]3(O)C(=O)C(C(N)=O)=C(O)[C@@H](N(C)C)[C@@H]3[C@@H](O)[C@H]12 [METHACYCLINE] | – | – | – | AC50 [4]: > 10 µM; AC50 (Melanocortin receptor 3): > 30 µM; AC50 [5]: > 10 µM; AC50 (Mu-type opioid receptor): > 30 µM; AC50 (Progesterone receptor [8]): > 30 µM; AC50 (Motilin receptor): > 30 µM; AC50 (D(1A) dopamine receptor [9]): > 10 µM; AC50 [6]: > 30 µM; AC50 [7]: > 10 µM
COc1ccc(OC)c(C(O)C(C)N)c1 (stereo unspecified) [METHOXAMINE] | > 30 µM | > 30 µM | > 30 µM | –
CC1(CCN2CCCCC2)C(=O)CCc2ccccc21 (stereo unspecified) [NEPINALONE] | > 30 µM | > 30 µM | > 30 µM | –
COC(=O)C[C@](O)(CCCC(C)(C)O)C(=O)O[C@@H]1C(OC)=C[C@]23CCCN2CCc2cc4c(cc2[C@H]13)OCO4 [OMACETAXINE MEPESUCCINATE] | > 30 µM | > 30 µM | > 30 µM | –
COc1cccc(C(=O)CCN[C@@H](C)[C@H](O)c2ccccc2)c1 [OXYFEDRINE] | 16.4 µM | > 30 µM | > 30 µM | –
CC[N+](C)(CC)CCOC(=O)C(O)(c1ccccc1)C1CCCCC1 (stereo unspecified) [OXYPHENONIUM] | > 30 µM | 0.003 µM | > 30 µM | –
C[C@@H]1C[C@H]2[C@@H]3C[C@H](F)C4=CC(=O)C=C[C@]4(C)[C@H]3[C@@H](O)C[C@]2(C)[C@@]1(O)C(=O)CO [PARAMETHASONE] | > 30 µM | > 30 µM | 5.1 µM | –
CCC[C@H](N[C@@H](C)C(=O)N1[C@H](C(=O)O)C[C@@H]2CCCC[C@@H]21)C(=O)OCC [PERINDOPRIL] | > 30 µM | > 30 µM | > 30 µM | –
N[C@@H](Cc1ccccc1)C(=O)O [PHENYLALANINE] | > 30 µM | > 30 µM | > 30 µM | –
CCCn1cnc2c1c(=O)n(CCCCC(C)=O)c(=O)n2C [PROPENTOFYLLINE] | > 30 µM | > 30 µM | > 30 µM | –
C[C@]12C=CC(=O)C=C1CC[C@@H]1[C@@H]2CC[C@]2(C)OC(=O)CC[C@@H]12 [TESTOLACTONE] | – | – | – | AC50 [4]: > 10 µM; AC50 (Melanocortin receptor 3): > 10 µM; AC50 [5]: > 10 µM; AC50 (Mu-type opioid receptor): > 30 µM; AC50 (Progesterone receptor [8]): > 10 µM; AC50 (Motilin receptor): > 10 µM; AC50 (D(1A) dopamine receptor [9]): > 10 µM; AC50 [6]: > 10 µM; AC50 [7]: > 10 µM
